Some targets named below: SRPK3/MSSK1/STK23 (Homo sapiens, UniProt Q9UPE1); SRPK1 (Homo sapiens, UniProt Q96SB4); SRPK2 (Homo sapiens, UniProt P78362).
Common to all, as to test: biochemical

Sequence of SRPK1 (Q96SB4 whole entry, species assumed): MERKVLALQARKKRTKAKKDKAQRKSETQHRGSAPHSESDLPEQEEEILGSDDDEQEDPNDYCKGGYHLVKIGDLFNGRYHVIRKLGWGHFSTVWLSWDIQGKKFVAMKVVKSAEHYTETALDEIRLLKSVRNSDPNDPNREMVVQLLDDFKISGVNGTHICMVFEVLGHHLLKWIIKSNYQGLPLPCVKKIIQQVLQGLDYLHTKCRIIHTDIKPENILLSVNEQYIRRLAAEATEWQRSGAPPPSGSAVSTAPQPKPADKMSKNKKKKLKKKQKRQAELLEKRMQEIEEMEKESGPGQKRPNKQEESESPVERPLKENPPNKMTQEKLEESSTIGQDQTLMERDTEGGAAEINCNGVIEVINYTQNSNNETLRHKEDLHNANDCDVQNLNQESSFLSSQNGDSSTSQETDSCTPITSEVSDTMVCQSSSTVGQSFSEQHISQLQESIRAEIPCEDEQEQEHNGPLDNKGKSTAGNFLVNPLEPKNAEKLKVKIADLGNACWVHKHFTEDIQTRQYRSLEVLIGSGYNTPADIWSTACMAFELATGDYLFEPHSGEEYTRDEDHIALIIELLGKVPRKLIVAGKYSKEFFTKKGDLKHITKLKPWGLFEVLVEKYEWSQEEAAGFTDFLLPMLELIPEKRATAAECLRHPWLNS
Sequence of SRPK2 (P78362 whole entry, species assumed): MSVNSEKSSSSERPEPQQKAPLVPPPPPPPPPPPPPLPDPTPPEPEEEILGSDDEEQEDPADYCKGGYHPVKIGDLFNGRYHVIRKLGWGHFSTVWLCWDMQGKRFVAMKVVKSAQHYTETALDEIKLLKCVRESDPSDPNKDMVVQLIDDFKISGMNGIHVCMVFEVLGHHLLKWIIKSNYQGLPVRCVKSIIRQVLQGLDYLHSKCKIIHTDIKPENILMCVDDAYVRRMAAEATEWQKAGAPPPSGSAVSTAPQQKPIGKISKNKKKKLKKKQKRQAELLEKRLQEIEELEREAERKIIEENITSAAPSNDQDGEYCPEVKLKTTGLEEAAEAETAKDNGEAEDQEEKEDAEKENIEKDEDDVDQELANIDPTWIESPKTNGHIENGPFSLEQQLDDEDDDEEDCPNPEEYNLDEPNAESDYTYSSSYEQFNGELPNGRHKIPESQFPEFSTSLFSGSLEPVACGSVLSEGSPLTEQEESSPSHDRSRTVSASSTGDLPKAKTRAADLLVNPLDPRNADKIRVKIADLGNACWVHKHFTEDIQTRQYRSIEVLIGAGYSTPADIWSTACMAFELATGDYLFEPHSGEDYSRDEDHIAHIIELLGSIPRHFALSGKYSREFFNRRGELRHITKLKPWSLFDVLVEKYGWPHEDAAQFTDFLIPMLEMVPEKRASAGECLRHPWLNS
Sequence of SRPK3/MSSK1/STK23 (Q9UPE1 whole entry): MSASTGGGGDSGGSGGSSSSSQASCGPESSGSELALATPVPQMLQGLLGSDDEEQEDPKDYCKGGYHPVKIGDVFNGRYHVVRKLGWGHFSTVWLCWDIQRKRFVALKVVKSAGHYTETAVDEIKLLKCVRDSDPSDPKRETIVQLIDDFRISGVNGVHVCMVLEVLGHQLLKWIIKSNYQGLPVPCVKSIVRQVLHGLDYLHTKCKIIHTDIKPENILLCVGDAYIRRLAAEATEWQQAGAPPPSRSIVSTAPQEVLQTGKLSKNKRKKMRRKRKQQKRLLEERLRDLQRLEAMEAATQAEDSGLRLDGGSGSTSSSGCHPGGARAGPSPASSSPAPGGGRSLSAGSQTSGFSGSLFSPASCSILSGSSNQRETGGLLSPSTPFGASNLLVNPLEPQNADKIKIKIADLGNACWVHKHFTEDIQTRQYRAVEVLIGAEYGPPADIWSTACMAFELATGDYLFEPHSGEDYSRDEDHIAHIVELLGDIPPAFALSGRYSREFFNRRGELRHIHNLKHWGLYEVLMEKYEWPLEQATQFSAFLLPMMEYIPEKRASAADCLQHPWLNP

Turning to `Cc1cc2cnc(-c3nc4cc(Cl)c(Cl)cc4n3C)nc2n1Cc1cccnc1N(C)S(C)(=O)=O` [Compound B22], the IC50 was 50 to 500 nM at SRPK3/MSSK1/STK23, less than 50 nM on SRPK1 and 50 to 500 nM on SRPK2.

Take `Cc1cc(Cl)cc2nc(-c3nccc(NCc4cccnc4N(C)S(C)(=O)=O)n3)[nH]c12` [Compound B9]: the figures for the IC50 against SRPK3/MSSK1/STK23, on SRPK1 and on SRPK2 were less than 50 nM, less than 50 nM and 50 to 500 nM, respectively.

Turning to `CCn1c(-c2nccc(NCc3cccnc3N(C)S(C)(=O)=O)n2)nc2cc(Cl)ccc21` [Compound B15], the IC50 against SRPK1 is less than 50 nM; against SRPK2, 500 to 2500 nM.

`CN(c1ccccc1CNc1cccc(-c2nc3cc(Cl)ccc3[nH]2)n1)S(C)(=O)=O` [Compound B3]: the results for the IC50 at SRPK1 and at SRPK2 were less than 50 nM and 50 to 500 nM, respectively.

As for `CN(c1ncccc1CNc1ccnc(-c2nc3cc(C(C)(C)C)c(F)cc3[nH]2)n1)S(C)(=O)=O` [Compound B18], the IC50 is less than 50 nM on SRPK3/MSSK1/STK23, 50 to 500 nM on SRPK1 and 500 to 2500 nM on SRPK2.

In the case of `CCN(c1ncccc1Cn1ccc2cnc(-c3nc4cc(Cl)ccc4[nH]3)cc21)S(C)(=O)=O` [Compound B16], the IC50 against SRPK3/MSSK1/STK23, on SRPK1 and at SRPK2 was 50 to 500 nM each time.

Regarding `CN(c1ncccc1Cn1c(=O)ccc2cnc(-c3nc4cc(Cl)ccc4[nH]3)cc21)S(C)(=O)=O` [Compound B20], the IC50 against SRPK3/MSSK1/STK23 was in the range of 500 to 2500 nM; at SRPK1, 50 to 500 nM; on SRPK2 it was 50 to 500 nM.

In the case of `CCN(c1ncccc1CNc1ccnc(-c2nc3cc(Cl)ccc3[nH]2)n1)S(C)(=O)=O` [Compound B8], the IC50 against SRPK1 was less than 50 nM; against SRPK2, 50 to 500 nM.

On to `CN(c1ncncc1CNc1ccnc(-c2nc3cc(Cl)ccc3[nH]2)n1)S(C)(=O)=O` [Compound B4], for which the values for the IC50 against SRPK1 and at SRPK2 were 50 to 500 nM and 500 to 2500 nM, respectively.

Turning to `CN(c1ncccc1CNc1cccc(-c2nc3cc(Cl)ccc3n2C)n1)S(C)(=O)=O` [Compound B6], the results for the IC50 against SRPK3/MSSK1/STK23, against SRPK1 and against SRPK2 were less than 50 nM, 50 to 500 nM and 50 to 500 nM, respectively.

As to `Cc1cc2cnc(-c3nc4cc(Cl)ccc4n3C)nc2n1Cc1cccnc1N(C)S(C)(=O)=O` [Compound B21], the IC50 against SRPK3/MSSK1/STK23 is 50 to 500 nM; on SRPK1, less than 50 nM; on SRPK2, 50 to 500 nM.

On SRPK2, `CN(c1ncccc1CNc1ccnc(-c2nc3cc(Cl)c(Cl)cc3n2C)n1)S(C)(=O)=O` [Compound B19] showed an IC50 of 50 to 500 nM.

As a reminder, the IC50 is the midpoint of a concentration-inhibition curve. A high value points to a need for much substance.

These data come from patent US20240382481A1 (priority 2021, published 2024).
